Results published in publication PMC9024893, “1,2,4-Trioxolane and 1,2,4,5-Tetraoxane Endoperoxides against Old-World Leishmania Parasites: In Vitro Activity and Mode of Action” (Pharmaceuticals, 2022).
Read-outs that look alike come from different tables or passages of the source.

Legend:
[1] = test system: L. infantum promastigotes; test: Flow cytometry analysis of mitochondrial membrane potential (JC-1); format: cell-based, Leishmania infantum; settings: 24 h
Experimental: (§1) The L. infantum strain (MHOM/PT/1988/IMT151) was chosen for the cytometry analysis and promastigotes at a concentration of 1 × 10^7 parasites/mL were tested against the three compounds evaluated in the intracellular amastigotes assay (LC132, LC137 and LC138). Flow cytometry analysis were performed in a CytoFlex flow cytometer (Beckman Coulter), at an excitation wavelength of 488 nm (blue laser). Data acquisition were collected and registered using channels FL1 (flurescein isothiocyanate, FITC) with a BP filter (525 ± 40 nm) for Fluorescein and FL2 (IP) with a BP filter (570 ± 20 nm) for propidium iodide (PI) and 10,000 total events per sample were analysed using CytExpert v2.0.0.153 software. Samples were analysed in triplicates and two to three independent experiments were performed. Values are expressed as a percentage of cells for a given marker, relatively to the number of cells analysed ± standard error of mean (SEM).
Mitochondrial damage was evaluated through the analysis of the mitochondrial membrane potential with MitoProbe™ JC-1 Assay Kit for Flow Cytometry (Molecular Probes, Invitrogen). Treated L. infantum promastigotes were incubated with IC50 and 2 × IC50 of the tested compounds and amphotericin B for 24 h, at 24 °C ± 1 °C. […] Cells were analysed by flow cytometry. […]

[2] = test system: L. infantum promastigotes; test: Flow cytometry detection of phosphatidylserine externalization (Annexin V/PI); format: cell-based, Leishmania infantum; settings: 2 × IC50, 48 h, mean ± SEM
Experimental: as §1
To distinguish apoptotic cell death from necrotic cell death, cells were counterstained with PI, a non-permeable stain with affinity for nucleic acids, as it selectively enters necrotic cells. […] After adding 400 μL of 1 × Binding Buffer, samples were analysed in Cytoflex flow cytometer. Annexin V-FITC and PI were measured in FL1 and FL2 channels, respectively. […]

[3] = Cytotoxicity assay (MTT), PMA-differentiated THP-1 cell line; format: cell-based; settings: human
Experimental: Adherent BALB/c mouse macrophage cell line J774A.1 (ATCC® TIB 67™) and suspension human acute monocytic leukemic cell line THP-1 (ATCC® TIB-202™) were purchased from DSMZ, Germany were cultured and maintained in DMEM medium (Gibco) and RPMI 1640 (Sigma), respectively, supplemented with 10% FBS, 1% penicillin-streptomycin (Sigma) and L-glutamine 200 mM (Sigma), at 37 °C, 5% CO2.
Cell lines J774A.1 and THP-1 were used to estimate CC50 of the peroxides. Cells were plated in 96-well flat bottom culture plates (VWR) at 5 × 10^5 cells/mL. The monocytic cell line THP-1 was differentiated in RPMI medium with phorbol myristate acetate (PMA) (25 ng/mL; Sigma) for 24 h, followed by a washing step with RPMI medium. Six serial concentrations of the compounds (Table 3) were added in four replicates and the plates were incubated at 37 °C ± 1 °C, 5% CO2 for 48 h. An untreated control (cells in DMEM or RPMI medium plus 0.5% DMSO as vehicle) and blank (medium alone) were plated out in quadruplicate. After the incubation period, 20 µL/well of MTT [3-(4,5-dimethylthiazol-2-yl)-2,5-diphenyltetrazolium bromide] was added to a final concentration of 5 µg/mL in 1× phosphate-buffered saline (PBS, Merck), with an additional 4 h incubation at 36 °C, as previously described. The formazan salts were resuspended in 2-propanol (Merck) and the cell viability was determined by measuring absorbance with a Synergy ™HTX Multi Mode Microplate Reader at 595 nm (Dynex Technologies). The CC50 values were calculated fitting the data as a non-linear regression with variable slope using a dose-response inhibitory model, in the GraphPad Prism V 8.0 program. Each compound was tested in three independent assays.

[4] = test system: L. infantum promastigotes; test: Flow cytometry detection of reactive oxygen species (CM-H2DCFDA); format: cell-based, Leishmania infantum; settings: 2 × IC50, 5 h
Experimental: as §1
For the detection of reactive oxygen species (ROS), a cell permeable probe CM-H2DCFDA (5 µg/mL Molecular Probes, Invitrogen) was used. Briefly, promastigotes were incubated with IC50 and 2 × IC50 of the tested compounds and amphotericin B for 5 h and 24 h, at 24 °C. […] Parasites were resuspended in normal medium (M199 medium) and fluorescence was measured by flow cytometry (blue laser), and the signals registered in the FL1/FITC channel.

[5] = test system: L. infantum promastigotes; test: Promastigotes DNA fragmentation (agarose gel); format: cell-based, Leishmania infantum; settings: IC50 concentrations, 24 h
Experimental: 2 mM H2O2 was used as DNA damage inductor and non-treated cells were used as control. After centrifugation (10 min, 800× g) DNA was extracted using a commercial extraction kit (High Template DNA Preparation Kit, Roche, Germany), according to the manufacturer’s instructions.

Structure (SMILES)	population percentage of JC-1 aggregates ([1]; 2 × IC50 concentration)	population percentage of JC-1 aggregates ([1]; IC50 concentration)	late apoptosis (Annexin+/PI+) cell population [2]	CC50 at 48 h [3]	ROS levels (FITC+), early phase of exposure [4]	genomic DNA fragmentation [5]	CC50 at 48 h ([3]; PMA-differentiated THP-1 cells, 48 h incubation, MTT, read-out: CC50 ± SD, THP-1 Cell Line)
C[C@@H]1[C@H](O)[C@@H](C)/C=C/C=C/C=C/C=C/C=C/C=C/C=C/[C@H](O[C@@H]2O[C@H](C)[C@@H](O)[C@H](N)[C@@H]2O)C[C@@H]2O[C@](O)(C[C@@H](O)C[C@@H](O)[C@H](O)CC[C@@H](O)C[C@@H](O)CC(=O)O[C@H]1C)C[C@H](O)[C@H]2C(=O)O [AmB, amphotericin B, reference compound]	69.1%	64.9%	17.5 ± 0.9%	23.2 ± 3 µM	–	–	–
CCOC(=O)C1CCC2(CC1)OOC1(OO2)C2CC3CC(C2)CC1C3 (centres unmarked) [LC138]	–	–	20.5 ± 4.2%	–	slight increase	did not produce DNA fragmentation	2839 ± 15 µM
